Test results from patent EP0801066A1, “Heterocyclic substituted benzothiophenes and pharmaceutical compositions” (ELI LILLY AND COMPANY, priority 1996, dated 1997).
Marks after values point to notes of the source that are not given here.

Key:
ovariectomized rats [1] = test: Uterine weight in ovariectomized rat post-menopausal model, 4-day oral dosing; type: in vivo, Sprague Dawley rats; conditions: for Increase in Uterine Weight (%): daily for 4 days, versus ovariectomized controls
Description: In the examples illustrating the methods, a post-menopausal model was used in which effects of different treatments upon circulating lipids were determined.
(§1) Seventy-five day old female Sprague Dawley rats (weight range of 200 to 225g) are obtained from Charles River Laboratories (Portage, MI). The animals are either bilaterally ovariectomized (OVX) or exposed to a Sham surgical procedure at Charles River Laboratories, and then shipped after one week. Upon arrival, they are housed in metal hanging cages in groups of 3 or 4 per cage and have ad libitum access to food (calcium content approximately 0.5%) and water for one week. Room temperature is maintained at 22.2° ± 1.7° C with a minimum relative humidity of 40%. The photoperiod in the room is 12 hours light and 12 hours dark.
(§2) Dosing Regimen Tissue Collection. After a one week acclimation period (therefore, two weeks post-OVX) daily dosing with test compound is initiated. 17α-ethynyl estradiol or the test compound is given orally, unless otherwise stated, as a suspension in 1% carboxymethylcellulose or dissolved in 20% cyclodextrin. Animals were dosed daily for 4 days. Following the dosing regimen, animals are weighed and anesthetized with a ketamine: Xylazine (2:1, V:V) mixture and a blood sample is collected by cardiac puncture. The animals are then sacrificed by asphyxiation with CO2, the uterus is removed through a midline incision, and a wet uterine weight is determined.

ovariectomized rats [2] = test: Osteoporosis Test Procedure: femur density in ovariectomized rats, 35-day dosing; type: in vivo, Sprague Dawley rats; conditions: oral, in 20% hydroxypropyl β-cyclodextrin, daily for 35 days
Description: Seventy-five day old female Sprague Dawley rats (weight range of 200 to 225g) are obtained from Charles River Laboratories (Portage, MI). The animals are either bilaterally ovariectomized (OVX) or exposed to a Sham surgical procedure at Charles River Laboratories, and then shipped after one week. Upon arrival, they are housed in metal hanging cages in groups of 3 or 4 per cage and have ad libitum access to food (calcium content approximately 0.5%) and water for one week. Room temperature is maintained at 22.2° ± 1.7° C with a minimum relative humidity of 40%. The photoperiod in the room is 12 hours light and 12 hours dark. Following the General Preparation Procedure, infra, the rats are treated daily for 35 days (6 rats per treatment group) and sacrificed by carbon dioxide asphyxiation on the 36th day. The 35 day time period is sufficient to allow maximal reduction in bone density, measured as described herein. At the time of sacrifice, the uteri are removed, dissected free of extraneous tissue, and the fluid contents are expelled before determination of wet weight in order to confirm estrogen deficiency associated with complete ovariectomy. […] The right femurs are excised and digitilized x-rays generated and analyzed by an image analysis program (NIH image) at the distal metaphysis. The proximal aspect of the tibiae from these animals are also scanned by quantitative computed tomography. […]

[3] = system: Uterine Eosinophil Peroxidase (EPO); test: Uterine Eosinophil Peroxidase (EPO) Assay in ovariectomized rats; type: in vivo, Sprague Dawley rats; conditions: for Serum Eosinophil (Vmax): oral, daily for 4 days, eosinophil peroxidase Vmax
Description: as §1, §2
Uterine Eosinophil Peroxidase (EPO) Assay. Uteri are kept at 4° C until time of enzymatic analysis. The uteri are then homogenized in 50 volumes of 50 mM Tris buffer (pH - 8.0) containing 0.005% Triton X-100. Upon addition of 0.01% hydrogen peroxide and 10 mM O-phenylenediamine (final concentrations) in Tris buffer, increase in absorbance is monitored for one minute at 450 nm. The presence of eosonophils in the uterus is an indication of estrogenic activity of a compound. The maximal velocity of a 15 second interval is determined over the initial, linear portion of the reaction curve.

Serum cholesterol = Serum cholesterol analysis in ovariectomized rats (hyperlipidemia); type: in vivo, Sprague Dawley rats; conditions: oral; for Decrease in Cholesterol (%): daily for 4 days, serum cholesterol versus ovariectomized controls
Description: as §1, §2
Cholesterol Analysis. Blood samples are allowed to clot at room temperature for 2 hours, and serum is obtained following centrifugation for 10 minutes at 3000 rpm. Serum cholesterol is determined using a Boehringer Mannheim Diagnostics high performance cholesterol assay. Briefly the cholesterol is oxidized to cholest-4-en-3-one and hydrogen peroxide. The hydrogen peroxide is then reacted with phenol and 4-aminophenazone in the presence of peroxidase to produce a p-quinone imine dye, which is read spectrophotemetrically at 500 nm. Cholesterol concentration is then calculated against a standard curve. The entire assay is automated using a Biomek Automated Workstation.

[4] = system: MCF-7 breast adenocarcinoma cells; test: MCF-7 Proliferation Assay (tritiated thymidine incorporation); type: cell-based; conditions: Homo sapiens, MCF7; 48 hours with drug, 4 hours tritiated thymidine pulse; read-out: IC50, inhibition of the growth of MCF-7 cells
Description: MCF-7 breast adenocarcinoma cells (ATCC HTB 22) are maintained in MEM (minimal essential medium, phenol red-free, Sigma, St. Louis, MO) supplemented with 10% fetal bovine serum (FBS) (V/V), L-glutamine (2 mM), sodium pyruvate (1 mM), HEPES {(N-[2-hydroxyethyl]piperazine-N'-[2-ethanesulfonic acid]10 mM}, non-essential amino acids and bovine insulin (1 ug/mL) (maintenance medium). Ten days prior to assay, MCF-7 cells are switched to maintenance medium supplemented with 10% dextran coated charcoal stripped fetal bovine serum (DCC-FBS) assay medium) in place of 10% FBS to deplete internal stores of steroids. MCF-7 cells are removed from maintenance flasks using cell dissociation medium (Ca^++/Mg^++ free HBSS (phenol red-free) supplemented with 10 mM HEPES and 2 mM EDTA). Cells are washed twice with assay medium and adjusted to 80,000 cells/mL. Approximately 100 µL (8,000 cells) are added to flat-bottom microculture wells (Costar 3596) and incubated at 37° C in a 5% CO2 humidified incubator for 48 hours to allow for cell adherence and equilibration after transfer. Serial dilutions of drugs or DMSO as a diluent control are prepared in assay medium and 50 µL transferred to triplicate microcultures followed by 50 µL assay medium for a final volume of 200 µL. […] Samples are counted by liquid scintillation using a Wallac BetaPlace β counter. […]

[5] = ovariectomized rats, EE2 at 0.1 mg/kg/day

Row | Increase in Uterine Weight (%) (ovariectomized rats [1]; dose 0.1 mg/kg) | Serum Eosinophil (Vmax) ([3]; dose 0.1 mg/kg) | Increase in Uterine Weight (%) (ovariectomized rats [1]; dose 1.0 mg/kg) | Increase in Uterine Weight (%) (ovariectomized rats [1]; dose 10.0 mg/kg) | Serum Eosinophil (Vmax) ([3]; dose 1.0 mg/kg) | Serum Eosinophil (Vmax) ([3]; dose 10.0 mg/kg) | IC50 [4] | SMILES | uterine weight compared to the ovariectomized animals (in words) (ovariectomized rats [1]; [5]) | bone loss / reduction in femur density after ovariectomy (in words) (ovariectomized rats [2]) | eosinophil infiltration into the uterus (in words) ([3]; stromal layer of ovariectomized rat uteri) | Decrease in Cholesterol (%) (Serum cholesterol; dose 0.1 mg/kg) | serum cholesterol compared to the ovariectomized animals (in words) (Serum cholesterol; [5]) | Decrease in Cholesterol (%) (Serum cholesterol; dose 1.0 mg/kg) | Decrease in Cholesterol (%) (Serum cholesterol; dose 10.0 mg/kg)
1 | 182.1* % | 211.1* |  |  |  |  |  | C#C[C@]1(O)CC[C@H]2[C@@H]3CCc4cc(O)ccc4[C@H]3CC[C@@]21C [EE2, 17-a-ethynyl estradiol, reference compound] | substantially greater than the uterine weight of the ovariectomized animals | prevented this loss | substantial and expected increase in eosinophil infiltration | 87.4* % | caused a decrease in serum cholesterol |  | 
2 | 80.3* % | 48.0* | 91.4* % | 80.8* % | 70.5* | 55.8* | 0.01 µM | O=C(c1ccc(OCCN2CCCCC2)nc1)c1c(-c2ccc(O)cc2)sc2cc(O)ccc12 [Prep. 1, [2-(4-Hydroxyphenyl)-6-hydroxybenzo[b]thien-3-yl][2-[2-(1-piperidinyl)ethoxy]pyridin-5-yl]methanone] |  |  |  | 57.1* % |  | 66.1* % | 61.7* %
